Tests used:
[1] = Deferoxamine degradation in solution by 262 nm UV absorbance; type: physicochemical
Text: FIG. 12 is a graph in which Y-axis is units of deferoxamine remaining in solution through monitoring of the 262 nm absorbance by UV spectroscopy. Trend line 1203 illustrates deferoxamine degradation in PBS solution (DEF/PBS). Trend line 1201 illustrates the degradation of deferoxamine in a PBS solution and dilute PEG-HCC (DEF/PEG). Trend line 1202 illustrates deferoxamine degradation in a PBS that had nitrogen gas bubbled through it (DEF/N2).
An additional advantage of this formulation is that it prevents the oxidative breakdown of the deferoxamine molecule, likely through an interaction with the antioxidant capacity of the parent nanomaterial (FIG. 12). This is a tremendous advantage clinically because current deferoxamine has a short shelf life when prepared for intravenous administration, which could be dramatically extended through this formulation and thereby be useful for settings other than the hospital, such as in a battle field, automobile trauma, or other setting in which tissue injury must be rapidly treated.

[2] = administered intravenously by itself; cited from earlier work
[3] = target: ferricytochrome C (CytCox) (Homo sapiens, UniProt P99999); experiment: ETS kinetics: reduction of ferricytochrome C by NADH; type: biochemical; settings: 4 mg/L catalyst, CytCox 40 μM, NADH 0-5 mM
[4] = Midpoint reduction potential; type: physicochemical
Text: PEG-HCCs and MB are electrochemically similar with respect to midpoint reduction potentials of +11 mV and ˜0 mV respectively, although PEG-HCCs have a much broader range. PEG-HCCs appear to have similar effects on the electron transport chain as described for MB.

[5] = test system: bEnd0.3 murine cerebrovascular endothelial cells; experiment: Hydrogen peroxide challenge assay in bEnd.3 cells (Calcein AM live cell counts); type: cell-based; settings: MB 0, 5, 10 and 20 μM, with or without 100 μM H2O2
Protocol: The differential properties of MB and PEG-HCCs were tested by using a hydrogen peroxide challenge assay in cultured cells. Hydrogen peroxide exerts toxic effects on endothelial cells through at least four routes: hydroxyl and superoxide radical formation by reacting with reduced species, nitric oxide synthase (NOS) and NADPH oxidase (NOX) stimulation and uncoupling, modulation of mitochondrial permeability, and the Fenton reaction. This employs administering the test agent after the hydrogen peroxide since efficacy under post-injury conditions would be critical for clinical translation.
PEG-HCCs and MB were compared in two standard hydrogen peroxide challenge assays. In the first experiment, bEnd0.3 murine cerebrovascular endothelial cells were treated with PEG-HCCs, and 100 μM H2O2 with and without 8 mg/L PEG-HCCs. The cells were incubated overnight and then then detached and counted using a hemocytometer and Calcein AM to label live cells. (Live cell counts n=32).
A similar assay was performed with MB at 0, 5, 10 and 20 μM given 15 minutes after initial exposure to 100 μM H2O2. […] The inclusion of 100 μM H2O2 further reduced survival.

Sequence of ferricytochrome C (CytCox) (P99999 whole entry): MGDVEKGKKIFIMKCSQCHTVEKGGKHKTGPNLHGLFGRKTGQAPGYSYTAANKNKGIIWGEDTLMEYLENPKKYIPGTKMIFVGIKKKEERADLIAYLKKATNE

Deferoxamine degradation in solution ([1]; PBS solution with dilute PEG-HCC (DEF/PEG))	Deferoxamine degradation in solution ([1]; PBS with nitrogen gas bubbled through (DEF/N2))	Vmax [3] [M/s]	Midpoint reduction potential [4] [mV]	SMILES	Half-life in circulation (t1/2) [2]	Cell survival [5]
no detectable degradation	no detectable degradation	–	–	CC(=O)N(O)CCCCCNC(=O)CCC(=O)N(O)CCCCCNC(=O)CCC(=O)N(O)CCCCCN [deferoxamine]	≈ 0.3 h	–
–	–	1.432e-07	~0	CN(C)c1ccc2nc3ccc(=[N+](C)C)cc-3sc2c1 [MB, Methylene blue]	–	dose-dependent reduction in cell survival

Reference: patent US12329780B2, “Acute and chronic mitochondrial electron transport chain dysfunction treatments and graphenic materials for use thereof” (WILLIAM MARSH RICE UNIVERSITY, priority 2017, dated 2025)
